The record followed here is BindingDB's records for doi:10.7270/Q2251GJ9 (The Scripps Research Institute Molecular Screening Center, 2007).

The pEC50 is the negative decadic logarithm of the EC50, by convention in mol/L. Low values mean a high EC50, high ones a low EC50.

SMILES strings stand for the structures. pEC50: −log10 of the molar value.

Sphingosine 1-phosphate receptor 1, sequence (P21453 whole entry): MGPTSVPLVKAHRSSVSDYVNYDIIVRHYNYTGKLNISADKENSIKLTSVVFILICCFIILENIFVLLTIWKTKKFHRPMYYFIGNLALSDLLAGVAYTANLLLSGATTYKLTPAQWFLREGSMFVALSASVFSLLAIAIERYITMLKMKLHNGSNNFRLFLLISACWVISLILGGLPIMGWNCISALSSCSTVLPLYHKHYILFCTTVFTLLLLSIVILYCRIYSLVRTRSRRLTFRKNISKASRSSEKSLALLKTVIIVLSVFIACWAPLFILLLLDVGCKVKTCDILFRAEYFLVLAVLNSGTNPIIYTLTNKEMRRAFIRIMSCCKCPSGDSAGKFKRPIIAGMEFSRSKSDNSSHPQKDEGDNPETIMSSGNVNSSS

The first assay has as its target Sphingosine 1-phosphate receptor 1 (Homo sapiens, UniProt P21453). As to the kind of experiment: S1P1 receptor agonists, dose response, cell-based, agonist mode, 60K MLSMR set (AID 468).
Settings: not given
In turn, `Fc1ccc2[nH]c3c(N4CCN(Cc5ccc6c(c5)OCO6)CC4)ncnc3c2c1` [4-[4-(1,3-benzodioxol-5-ylmethyl)-1-piperazinyl]-8-fluoro-5H-pyrimido[5,4-b]indole] showed a pEC50 of 5.71.
On the same count and under the same terms, then `CCc1oc2ccccc2c1C(=O)c1cc(Br)c(O)c(Br)c1`, with 5.23; and `Fc1ccc2[nH]c3c(N4CCN(c5ccccc5)CC4)ncnc3c2c1`, with under 5.52; and `C=CCn1c(C)cc(C(=O)CSc2nc3ccccc3o2)c1C` [1-(1-allyl-2,5-dimethyl-pyrrol-3-yl)-2-(1,3-benzoxazol-2-ylthio)ethanone], with 5.02.
As to `Cn1ncnc2c(=O)n(C)c(=O)nc1-2`, the pEC50 is 5.85.
Still for that read-out and setting: then `CCc1ccc(NC(=O)c2cc(-c3ccco3)on2)cc1` [MLS000087211], with 5.16; and `Cc1ccccc1-c1noc(-c2ccc(O)cc2)n1` [4-[3-(2-methylphenyl)-2H-1,2,4-oxadiazol-5-ylidene]-1-cyclohexa-2,5-dienone], with 5.07; and `CCOC(=O)CN1C(=O)C(C)(C)Oc2ccc(C(=O)Nc3ccccc3OC)cc21` [2-[3-keto-6-[(2-methoxyphenyl)carbamoyl]-2,2-dimethyl-1,4-benzoxazin-4-yl]acetic acid ethyl ester], with 5.37.
On the same count and under the same terms, then `Clc1ccc(-n2nnnc2Sc2ncnc3sccc23)cc1` [SMR000066808], with 5.19.
The same measure, in the same setting: then `c1ccc(CN2CCN(c3ncnc4c3[nH]c3ccccc34)CC2)cc1` [MLS000078384], with 5.38.
The molecule `CCOC(=O)C1CCN(c2ncnc3c2oc2ccc(Cl)cc23)CC1` [1-(8-chloro-4-benzofuro[3,2-d]pyrimidinyl)-4-piperidinecarboxylic acid ethyl ester] showed a negative logarithm of the EC50 (pEC50) of under 4.02.
The same measure, in the same setting: then `COc1ccc(CCNc2c(C)c(C)nc3ncnn23)cc1` [(5,6-Dimethyl-[1,2,4]triazolo[1,5-a]pyrimidin-7-yl)-[2-(4-methoxy-phenyl)-ethyl]-amine], with 5.51.
With `Cc1ccc(C(C)C)c(OCc2nc(-c3nonc3N)no2)c1` [4-[5-[(5-methyl-2-propan-2-yl-phenoxy)methyl]-1,2,4-oxadiazol-3-yl]-1,2,5-oxadiazol-3-amine], the pEC50 was 5.79.
Still for that read-out and setting: then `Cc1ccc(OCCn2cc(C(=N)NO)c3ccccc32)cc1C` [1-[2-(3,4-dimethylphenoxy)ethyl]-N'-hydroxy-1H-indole-3-carboximidamide], with 5.01; and `COc1ccc(CN=O)cc1COc1ccc(NC(C)=O)cc1` [MLS000111933], with under 4.02; and `CN(C)c1ccnc2sc3c(=O)n(Cc4ccccc4)cnc3c12` [3-Benzyl-9-dimethylamino-3H-pyrido[3',2':4,5]thieno[3,2-d]pyrimidin-4-one], with 5.61.
Still for that read-out and setting: then `O=C(Nc1cccc(C(F)(F)F)c1)N1CCC(c2nc(-c3ccc(F)cc3)no2)CC1` [4-[3-(4-Fluoro-phenyl)-[1,2,4]oxadiazol-5-yl]-piperidine-1-carboxylic acid (3-trifluoromethyl-phenyl)-amide], with 5.13; and `COc1ccc(-c2nc(-c3ccc(NC(=O)c4ccncc4)cc3)no2)cc1OC` [MLS000115086], with 6.02; and `Cc1cc(C(=O)CSc2nnc(-c3ccncc3)n2-c2ccccc2)c(C)n1C` [2-[(4-phenyl-5-pyridin-4-yl-1,2,4-triazol-3-yl)sulfanyl]-1-(1,2,5-trimethylpyrrol-3-yl)ethanone], with 5.61.
Same read-out and setting: under `COc1ccc(-n2c(O)cc(Sc3nnc[nH]3)c2O)c(OC)c1` [1-(2,4-dimethoxyphenyl)-3-(1H-1,2,4-triazol-5-ylthio)pyrrolidine-2,5-dione] stands 4.78; under `Oc1ccc(N2CCN(c3ncnc4sc5c(c34)CCC5)CC2)cc1` [4-[4-(7,8-dihydro-6H-cyclopenta[4,5]thieno[1,2-c]pyrimidin-1-yl)-1-piperazinyl]phenol], 5.04; under `O=C(Nc1ccc(OC(F)F)c(Cl)c1)Nc1ccc2c(c1)OCO2` [1-(1,3-benzodioxol-5-yl)-3-[3-chloro-4-(difluoromethoxy)phenyl]urea], 5.11.
As to `O=C(NCc1ccccc1)N1CCN(c2ccc(Cl)c(Cl)c2)CC1` [4-(3,4-dichlorophenyl)-N-(phenylmethyl)-1-piperazinecarboxamide], the pEC50 was 5.15.
As for `Cc1cc(N2CCN(C/C=C/c3ccccc3)CC2)n2ncnc2n1` [5-Methyl-7-[4-((E)-3-phenyl-allyl)-piperazin-1-yl]-[1,2,4]triazolo[1,5-a]pyrimidine], the pEC50 was under 4.52.
As to `COCCn1c(C)cc(C(=O)CSc2nc3ccccc3c(=O)[nH]2)c1C` [2-[[2-[1-(2-methoxyethyl)-2,5-dimethyl-3-pyrrolyl]-2-oxoethyl]thio]-1H-quinazolin-4-one], the pEC50 was 4.21.
`CCc1c(C)sc(NC(=O)c2cc(-c3ccco3)on2)c1C#N` [MLS000087225] gave a pEC50 of 5.38.
Same read-out and setting: under `Cc1ccnc(SCC(=O)Nc2sc3c(c2C#N)CCCC3)n1` [MLS000077260] stands 5.32; under `Fc1ccc2[nH]c3c(N4CCSCC4)ncnc3c2c1` [MLS000078401], 5.21; under `OC(c1cccc(OCc2ccccc2)c1)c1nnc(-c2ccccc2)o1` (configuration not stated) [(3-benzoxyphenyl)-(5-phenyl-1,3,4-oxadiazol-2-yl)methanol], 5.68.
In the case of `Cc1cc(C(=O)Nc2sc(C)c(-c3ccc(F)cc3)c2C(N)=O)no1` [MLS000043467], the pEC50 is 5.17.
The molecule `c1ccc(C(Cc2nc(-c3cccnc3)no2)c2ccccc2)cc1` [5-(2,2-diphenylethyl)-3-(3-pyridinyl)-1,2,4-oxadiazole] showed a pEC50 of 5.55.
The same measure, in the same setting: then `Cc1ccc2[nH]c3c(NCc4ccco4)ncnc3c2c1` [MLS000040855], with 5.00.
Same read-out and setting: under `Cc1occc1C(=O)N1CCN(c2ccc(Cl)c(Cl)c2)CC1` [1-(3,4-dichlorophenyl)-4-(2-methyl-3-furoyl)piperazine] stands 5.35.
In turn, `O=c1c(-c2ccc3c(c2)OCCO3)c(C(F)(F)F)oc2cc(O)cc(O)c12` [3-(2,3-dihydro-1,4-benzodioxin-6-yl)-5,7-bis(oxidanyl)-2-(trifluoromethyl)chromen-4-one] had a pEC50 of 5.38.
Consider `CCCS(=O)(=O)c1nnnn1-c1cccc(OC)c1` [1-(3-methoxyphenyl)-5-(propylsulfonyl)-1H-tetrazole], for which the pEC50 was 5.55.
Still for that read-out and setting: under `O=S(=O)(NCc1ccncc1)c1ccc(Br)s1` [5-bromanyl-N-(pyridin-4-ylmethyl)thiophene-2-sulfonamide] stands 5.58; under `O=C(CCc1nc(-c2ccccc2F)no1)Nc1ccc(Oc2ccccc2)cc1` [3-[3-(2-fluorophenyl)-1,2,4-oxadiazol-5-yl]-N-(4-phenoxyphenyl)propanamide], 5.31; under `CCOc1ccc(S(=O)(=O)N2CCN(c3ccc(C)cc3C)CC2)cc1` [1-(2,4-dimethylphenyl)-4-(4-ethoxyphenyl)sulfonyl-piperazine], under 5.00.
Same read-out and setting: then `c1ccc2c(c1)oc1c(N3CCN(Cc4ccc5c(c4)OCO5)CC3)ncnc12`, with 5.21; and `COc1ccc(-c2nc3cc(NC(=O)Cc4ccc(OC)c(OC)c4)ccc3o2)cc1` [2-(3,4-dimethoxyphenyl)-N-[2-(4-methoxyphenyl)-1,3-benzoxazol-5-yl]acetamide], with 5.10; and `O=C(Nc1ccccc1C(F)(F)F)c1cc(-c2ccc(O)cc2)on1` [5-(4-hydroxyphenyl)-N-[2-(trifluoromethyl)phenyl]isoxazole-3-carboxamide], with 6.02.
For `Cc1nn(C(=O)c2cccs2)c(N)c1-c1ccccc1` [(5-amino-3-methyl-4-phenyl-1-pyrazolyl)-thiophen-2-ylmethanone], the pEC50 was 5.14.
Consider `CCCC(=O)Nc1ccc(-c2nc3cc(C)ccc3o2)cc1` [MLS000061826], for which the pEC50 was 5.22.

Staying with this assay, now noted: inactive by the depositor's call.
`CSc1ccc(S(=O)(=O)Nc2ccc3c(c2)OCCO3)cc1` [MLS000115922]: the pEC50 was 4.87.
As to `N#Cc1nc(COc2ccc(Cl)cc2Cl)oc1N1CCN(c2ccccc2)CC1` [2-[(2,4-dichlorophenoxy)methyl]-5-(4-phenyl-1-piperazinyl)-4-oxazolecarbonitrile], the pEC50 is 4.86.
The molecule `Cc1cccc(-n2ncc3c(N(C)C4CCCCC4)ncnc32)c1` [MLS000100814] had a pEC50 of 4.02.
The same measure, in the same setting: then `CCCCOc1ccc(S(=O)(=O)n2c(C)nc3ccccc32)cc1` [1-(4-butoxyphenyl)sulfonyl-2-methyl-benzimidazole], with 4.64.
The same measure, in the same setting: under `CCN(CC)S(=O)(=O)c1cccc(S(=O)(=O)c2cccc(S(=O)(=O)N(CC)CC)c2)c1` [3-[3-(diethylsulfamoyl)phenyl]sulfonyl-N,N-diethyl-benzenesulfonamide] stands 4.71; under `COc1ccc(OCCCSc2ncccn2)cc1` [2-[3-(4-methoxyphenoxy)propylsulfanyl]pyrimidine], 4.24.
As for `CC(C)OCCCNc1ncnc2c1[nH]c1ccccc12` [MLS000041327], the pEC50 is 4.85.
With `Oc1c(C(c2ccco2)N2CCN(C(c3ccccc3)c3ccccc3)CC2)sc2ncnn12` (configuration not stated) [5-[(4-benzhydrylpiperazin-1-yl)-(furan-2-yl)methyl]-[1,3]thiazolo[3,2-b][1,2,4]triazol-6-ol], the pEC50 is 4.80.
Molecule `O=C(C1CCC1)N1CCc2cc(S(=O)(=O)Nc3ccc4c(c3)OCCO4)ccc21` [1-(cyclobutanecarbonyl)-N-(2,3-dihydro-1,4-benzodioxin-6-yl)-2,3-dihydroindole-5-sulfonamide] showed a pEC50 of 4.41.
The same measure, in the same setting: under `COc1ccc(-n2c(C)c(C(C)=O)c3cc(O)ccc32)cc1` [1-[1-(4-methoxyphenyl)-2-methyl-5-oxidanyl-indol-3-yl]ethanone] stands 4.81; under `Cc1noc(C)c1S(=O)(=O)N(CC(=O)Nc1ccc2c(c1)OCCO2)c1ccc(C(C)C)cc1` [MLS000117406], 4.85; under `CCN(CC)C(=O)Oc1ccc2c(=O)c(-c3ccccc3)coc2c1` [(4-oxidanylidene-3-phenyl-chromen-7-yl) N,N-diethylcarbamate], 4.43.
Same read-out and setting: under `CC1Cc2cc(-c3csc(NC(=O)Cc4cccs4)n3)ccc2N1S(C)(=O)=O` (configuration not stated) [MLS000027766] stands 4.93; under `CCC(C)OC(=O)c1[nH]c2c(c1C)C(=O)CC(c1ccc(N(C)C)cc1)C2` (configuration not stated) [MLS000116530], 4.73.
